The values that follow come from patent US12090147B2, “Combination therapy with 2-(4-chlorophenyl)-N-((2-(2,6-dioxopiperidin-3-yl)-1-oxoisoindolin-5-yl)methyl)-2,2-difluoroacetamide” (Celgene Corporation, priority 2019, dated 2024).

What all share (assay type): cell-based, human
Test [1] has as its system Normal Peripheral Blood Mononuclear Cells. The test can be described thus: Cytokine induction, electrochemiluminescence assay of culture supernatant. The conditions noted are these: PBMC. How it is done: Normal PBMCs were purchased from AllCells (Cat No. PB006F). Primary AML BMMC in were purchased from Conversant (SKU ID: BBM1000-E1110036458110215SH) or Fidelis Research (AML55, AML57, AML73, AML74, AML76, AML79, AML80, AML81, AML84, AML95). Bone marrow from health donor was purchased from StemCell Technologies (Cat No. 70001.2).
Normal PBMCs were cultured in RPMI-1640 (ATCC Cat No. 30-2001) containing 20% fetal bovine serum (Corning Cat No. 35-010-CV). Primary AML and bone marrows were cultured in Complete Medium Cytokines 1X: StemSpam™ Serum-Free Expansion Medium (StemCell Technologies Cat No. 09650) supplemented with 50 ng/mL Stem Cell Factor (Peprotech Cat No. 300-07), 50 ng/mL recombinant Human FLT3-Ligand (Peprotech Cat No. 300-19), 20 ng/mL recombinant human-interleukin-3 (Peprotech Cat No. 200-03), […] recombinant human-interleukin-6 (Peprotech Cat No. 200-06), 1 μM StemRegenin (StemCell Technologies Cat No. 72342), penicillin/streptomycin (Invitrogen Cat No. 15140122).
(§1) IL-1α (Meso Scale Disgnostics, Cat No. K151RBD), IL-1β (Meso Scale Disgnostics, Cat No. K151QPD), IL-1RA (Meso Scale Disgnostics, Cat No. K151WTD), IL-18 (Meso Scale Disgnostics, Cat No. K151VJK), TNFa (Meso Scale Disgnostics, Cat No. K151QWD), VEGF Meso Scale Disgnostics, Cat No. K151RHD) levels were measured by (Meso Scale Disgnostics assay kits following manufacturer's instructions. Measurements were made on a MESO™ SECTOR S 600 plate reader (Meso Scale Disgnostics).
Cell proliferation (CTG) and caspase 3/7 activation (IncuCyte) were analyzed using GraphPad Prism. Electrochemiluminescence data was analyzed using MSD Discovery Workbench platform.
(§2) The level of intracellular pro IL-1β and released IL-1β in eight AML cell lines and normal PBMC treated with a titration of Compound 1 over a 48 hour period was assessed. (see FIGS. 1A-1C, Table 2). Supernatant IL-1βb level was induced over 5 fold in 6 out of 8 AML cell lines and normal PBMC upon Compound 1 treatment compared to DMSO (FIGS. 1A, 1B, and 1C, Table 2).

The next test relates to ML-2 cells. Briefly: Immunoblot analysis of target proteins. The method, then:
Cells were washed in ice-cold 1×PBS twice before harvest in Cell Extraction Buffer (ThermoFisher Cat No. FNN0011) supplemented with 1× Halt Protease Inhibitor Cocktail (ThermoFisher Cat No. 78429). Whole cell extracts were collected after centrifugation at 14,000 g for 10 minutes, resolved on 4-12% Bis-Tris Novex Precast Gels (ThermoFisher Cat No. WG1403A), transferred onto a nitrocellulose membrane using the Turboblot Turbo Transfer System (Bio-Rad), and probed with the indicated primary antibodies. Bound antibodies were detected with IRDye-680 or -800 conjugated secondary antibodies using a LI-COR scanner.
Antibodies used for immunoblot: mouse anti-human GSPT-1 mAb conjugated with AL647 (clone number GSPT1-164-17G9-G6, Celgene, San Diego, CA), IL-1β (R&D Systems, Cat No. AF-201-NA), cleaved caspase 3 (Cell Signaling, Cat No. 9664S), alpha-tubulin (Cell Signaling, Cat No. 3873S), cleaved Caspase-8 (Cell Signaling, Cat No. 9748S), Caspase-1 (Cell Signaling, Cat No. 3866S), HA tag (Cell Signaling, Cat No. 3724), phosphor-eIF2a (Cell Signaling, Cat No. 9721), total eIF2a (Cell Signaling, Cat No. 9722), ATF4 (Cell Signaling, Cat No. 11815S), CHOP (Abcam, Cat No. 11419), GAPDH (Cell Signaling, Cat No. 5174), rabbit anti-mouse 800 antibody (LI-COR Biosciences), rabbit anti-mouse 680 antibody (LI-COR Biosciences), mouse anti-rabbit 680 antibody (LI-COR Biosciences), mouse anti-rabbit 800 antibody (LI-COR Biosciences)
as §2
(In general: Immunoblotting shows a protein as a band on a membrane.)

Test [2] concerns ML-2, MV4-11 and MOLM13 cell lines. The test can be described thus: VEGF and TNFa levels, electrochemiluminescence assay. Particulars: compared to other mechanistic agents. How it is done:
as §1
To further explore the mechanisms underlying IL-1β induction by Compound 1, and compounds with different, but related mechanisms to Compound 1 were tested in three AML cell lines, ML-2, MV4-11 and MOLM-13 (FIG. 4 and FIG. 5). Compound 1 degrades GSPT1 through cereblon mediated protein degradation, which leads to global translation inhibition, activation of ISR and subsequently apoptosis. […] To assess if GSPT1 degradation leads to pan-cytokine induction or specific to IL-1β, the compound effect was compared on the levels of two other known hypotension inducing cytokines, TNFa and VEGF (FIG. 7).

Test [3] concerns MOLM13 cell pair expressing wildtype GSPT1 or GSPT1 G575N. Briefly: Isogenic cell pair, endogenous GSPT1 vs non-degradable GSPT1 G575N. Particulars: MOLM13 overexpressing GSPT1 G575N. From the text: To further confirm if IL-1β induction is an on-target effect of GSPT1 degradation, intracellular pro-IL-1β and secreted IL-1βb levels in response to Compound 1 treatment were compared in an isogenic MOLM13 cell pair either expressing endogenous wildtype GSPT1 or overexpressing a non-degradable form of GSPT1 G575N.

Another test deals with ML-2. Briefly: Cytokine induction, electrochemiluminescence assay of culture supernatant. Particulars: compounds at 1 μM, 72 hours.

SMILES strings stand for the structures.

For `O=C1CCC(N2Cc3cc(CNC(=O)C(F)(F)c4ccc(Cl)cc4)ccc3C2=O)C(=O)N1` (stereo not drawn) [Compound 1, 2-(4-chlorophenyl)-N-((2-(2,6-dioxopiperidin-3-yl)-1-oxoisoindolin-5-yl)methyl)-2,2-difluoroacetamide], in test [1], the IL-1β induction came to 1.88 and the IL-18 induction is reported as 0.90. The “Intracellular pro-IL-1β (immunoblot)” value in the test on ML-2 cells (24, 48 and 72 hours, doses conferring similar caspase3/7 activation and viability loss) was “conferred induction”. The “Cleaved caspase 3 (immunoblot)” value with ML-2 cells (24 hours) was “concurrent induction of cleaved caspase 3”. Further, in the test on ML-2 cells (two high doses of Compound 1 at 24 hours), the “GSPT1 level (immunoblot)” value is “significant reduction of GSPT1”. The “VEGF and TNFa levels” value in test [2] is “did not induce more VEGF nor TNFa compared to other mechanistic agents”. In test [3], the “Compound 1 mediated GSPT1 degradation, caspase 3 activation and viability loss” value is listed as “complete resistance”; the “Pro-IL-1β, intracellular and supernatant IL-1β induction” value is given as “completely blocked”. In addition, in the test on ML-2, the “Secreted IL-1β levels, panel of mechanistic compounds” value was “produced markedly more secreted IL-1β compared to all other compounds tested”.
